Literature values in patent publication US20060034774A1, “Galactopyrannosyltriaminetetracarboxylate as ligands for bioactivated paramagnetic metal complexes” (Kaohsiung Medical University, priority 2004, published 2006).
Where two headings read alike, the source gives them in different places.

Target: β-galactosidase (β-gal) (Escherichia coli, UniProt P00722)
Sequence (P00722 2-1024): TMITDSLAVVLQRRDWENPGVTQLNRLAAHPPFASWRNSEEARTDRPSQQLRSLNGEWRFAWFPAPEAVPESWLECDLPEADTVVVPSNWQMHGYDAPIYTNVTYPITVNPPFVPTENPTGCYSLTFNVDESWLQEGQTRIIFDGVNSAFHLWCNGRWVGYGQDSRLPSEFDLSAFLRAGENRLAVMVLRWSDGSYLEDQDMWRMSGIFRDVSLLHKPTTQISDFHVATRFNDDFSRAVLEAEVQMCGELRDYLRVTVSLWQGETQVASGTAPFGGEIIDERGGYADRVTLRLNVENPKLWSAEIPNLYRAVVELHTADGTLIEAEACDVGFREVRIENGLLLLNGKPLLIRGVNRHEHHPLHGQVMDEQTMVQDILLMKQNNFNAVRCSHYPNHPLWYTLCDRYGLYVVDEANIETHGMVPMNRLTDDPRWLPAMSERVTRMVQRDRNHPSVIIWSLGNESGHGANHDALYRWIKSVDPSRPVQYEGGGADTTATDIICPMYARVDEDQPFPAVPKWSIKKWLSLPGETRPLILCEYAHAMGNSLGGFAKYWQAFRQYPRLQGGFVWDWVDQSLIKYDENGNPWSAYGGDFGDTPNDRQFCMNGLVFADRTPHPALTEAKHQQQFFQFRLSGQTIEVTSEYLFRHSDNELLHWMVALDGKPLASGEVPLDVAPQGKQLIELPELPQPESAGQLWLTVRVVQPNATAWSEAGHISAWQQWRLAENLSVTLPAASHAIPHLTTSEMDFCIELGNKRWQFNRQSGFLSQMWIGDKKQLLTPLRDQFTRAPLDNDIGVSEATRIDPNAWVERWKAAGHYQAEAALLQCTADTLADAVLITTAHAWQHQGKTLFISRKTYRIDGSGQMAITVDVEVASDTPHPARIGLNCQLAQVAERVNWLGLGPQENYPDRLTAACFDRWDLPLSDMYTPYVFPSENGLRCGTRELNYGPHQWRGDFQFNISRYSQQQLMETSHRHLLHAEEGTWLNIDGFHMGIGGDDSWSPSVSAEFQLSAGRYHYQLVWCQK

## O=C(O)CN1CCN(CCO[C@@H]2O[C@H](CO)[C@H](O)[C@H](O)[C@H]2O)CCN(CC(=O)O)CCN(CC(=O)O)CC1 [Egad, 4,7,10-tri(aceticacid)-1-(2-β-galactopyranosylethoxy)-1,4,7,10-tetraagacyclo dodecane]
After hydrolysis by β-galactosidase (β-gal)
  number of inner space water molecules: 1.2
Before β-galactosidase
  number of inner space water molecules: 0.7
